# Experiments:
# Zymoseptoria tritici = assay: Leaf blotch of wheat (SEPTTR) disease control on wheat seedlings; assay type: in vivo; design: key to SEPTTR 1DP, HV activity at 100 ppm (% control rating) / SEPTTR 3DC, HV activity at 100 ppm (% control rating) / SEPTTR disease control, 1DP / SEPTTR disease control, 3DC / SEPTTR 1DP disease control rating, HV activity / SEPTTR 3DC disease control rating, HV activity / SEPTTR 3DC, LV activity at 125.1 g/H (% Control rating) / SEPTTR 1DP, LV activity at 125.1 g/H (% Control rating) / SEPTTR 1DP disease control rating, LV activity at 125.1 g/H / SEPTTR 3DC disease control rating, LV activity at 125.1 g/H / SEPTTR 3DC disease control rating, HV activity at 100 ppm / SEPTTR 1DP disease control rating, HV activity at 100 ppm / HV activity at 100 ppm SEPTTR 3DC (disease control rating) / HV activity at 100 ppm SEPTTR 1DP (disease control rating) / LV activity at 125.1 g/H SEPTTR 1DP (disease control rating) / LV activity at 125.1 g/H SEPTTR 3DC (disease control rating): A: > 80; B: ≤ 80; C: Not Tested; D: No Activity Observed in the Reported Assay; conditions: for SEPTTR 1DP disease control rating, HV activity at 100 ppm / SEPTTR 3DC disease control rating, HV activity at 100 ppm: high volume application
# Procedure: (§1) All fungicides were evaluated using the aforementioned method for their activity vs. all target diseases, unless stated otherwise. Wheat leaf blotch and brown rust activity were also evaluated using track spray applications, in which case the fungicides were formulated as EC formulations, containing 0.1% Trycol 5941 in the spray solutions. Wheat plants (variety Yuma) were grown from seed in a greenhouse in 50% mineral soil/50% soil-less Metro mix until the first leaf was fully emerged, with 7-10 seedlings per pot. These plants were inoculated with an aqueous spore suspension of Zymoseptoria tritici either prior to or after fungicide treatments. After inoculation the plants were kept in 100% relative humidity (one day in a dark dew chamber followed by two to three days in a lighted dew chamber at 20° C.) to permit spores to germinate and infect the leaf. The plants were then transferred to a greenhouse set at 20° C. for disease to develop. When disease symptoms were fully expressed on the 1st leaves of untreated plants, infection levels were assessed on a scale of 0 to 100 percent disease severity. Percent disease control was calculated using the ratio of disease severity on treated plants relative to untreated plants.
# Puccinia triticina = assay: Wheat brown rust (PUCCRT) disease control on wheat seedlings; assay type: in vivo; design: key to PUCCRT 3DC, HV activity at 100 ppm (% control rating) / PUCCRT disease control, 3DC / PUCCRT 1DP disease control rating, HV activity / PUCCRT 3DC disease control rating, HV activity / PUCCRT 3DC, LV activity at 125.1 g/H (% Control rating) / PUCCRT 1DP, LV activity at 125.1 g/H (% Control rating) / PUCCRT 3DC disease control rating, LV activity at 125.1 g/H / PUCCRT 1DP disease control rating, LV activity at 125.1 g/H / PUCCRT 3DC disease control rating, HV activity at 100 ppm / PUCCRT 1DP disease control rating, HV activity at 100 ppm / HV activity at 100 ppm PUCCRT 3DC (disease control rating) / LV activity at 125.1 g/H PUCCRT 1DP (disease control rating) / LV activity at 125.1 g/H PUCCRT 3DC (disease control rating): A: > 80; B: ≤ 80; C: Not Tested; D: No Activity Observed in the Reported Assay; conditions: for PUCCRT 1DP disease control rating, HV activity at 100 ppm / PUCCRT 3DC disease control rating, HV activity at 100 ppm: high volume application
# Procedure: as §1, with “plants. Example B: Evaluation of Fungicidal Activity: Wheat Brown Rust (Puccinia triticina; Synonym: Puccinia recondita f. sp. Tritici; Bayer Code PUCCRT) Wheat plants (variety Yuma) were grown from seed in a greenhouse in 50% mineral soil/50% soil-less Metro mix until the first leaf was fully emerged, with 7-10 seedlings per pot. These plants were inoculated with an aqueous spore suspension of Puccinia triticina either prior to or after fungicide treatments. […] The plants were then transferred to a greenhouse set at 24° C. for disease to develop. Fungicide formulation, application and disease assessment followed the procedures as described in the Example A.” for “plants.”
# [1] = low volume application, 125.1 g/H, 1 Day Protectant
# [2] = low volume application, 125.1 g/H, 3 Day Curative
# [3] = low volume application, 125.1 g/H, 1 day protectant
# [4] = low volume application, 125.1 g/H, 3 day curative
compound,measurement,setting,value
COc1ccnc(C(=O)N[C@@H](C)C(=O)O[C@@H](C)[C@H](Oc2ccc(Cl)cc2Cl)c2ccccc2)c1OCOC(C)=O [Cmpd 634],"SEPTTR 1DP, LV activity at 125.1 g/H (% Control rating)",Zymoseptoria tritici; [1],A (> 80)
same,"SEPTTR 3DC, LV activity at 125.1 g/H (% Control rating)",Zymoseptoria tritici; [2],A (> 80)
same,"PUCCRT 1DP, LV activity at 125.1 g/H (% Control rating)",Puccinia triticina; [1],A (> 80)
same,"PUCCRT 3DC, LV activity at 125.1 g/H (% Control rating)",Puccinia triticina; [2],B (≤ 80)
C=CC[C@@H](OCC1CC1)[C@H](C)OC(=O)[C@H](C)NC(=O)c1nccc(OC)c1OC(C)=O [Cmpd 1085],LV activity at 125.1 g/H SEPTTR 1DP (disease control rating),"Zymoseptoria tritici; low volume application, 125.1 g/H, 1 Day Protectant, wheat leaf blotch",D
same,LV activity at 125.1 g/H SEPTTR 3DC (disease control rating),"Zymoseptoria tritici; low volume application, 125.1 g/H, 3 Day Curative, wheat leaf blotch",D
same,LV activity at 125.1 g/H PUCCRT 1DP (disease control rating),"Puccinia triticina; low volume application, 125.1 g/H, 1 Day Protectant, wheat brown rust",D
same,LV activity at 125.1 g/H PUCCRT 3DC (disease control rating),"Puccinia triticina; low volume application, 125.1 g/H, 3 Day Curative, wheat brown rust",B (≤ 80)
CCC(CC)[C@H](Oc1cccc(F)c1)[C@H](C)OC(=O)[C@H](C)NC(=O)c1nccc(OC)c1O [Cmpd 419],"SEPTTR 1DP disease control rating, HV activity","Zymoseptoria tritici; HV application at 100 ppm, 1 Day Protectant, wheat leaf blotch",B (≤ 80)
same,"SEPTTR 3DC disease control rating, HV activity","Zymoseptoria tritici; HV application at 100 ppm, 3 Day Curative, wheat leaf blotch",B (≤ 80)
same,"PUCCRT 1DP disease control rating, HV activity","Puccinia triticina; HV application at 100 ppm, 1 Day Protectant, wheat brown rust",A (> 80)
same,"PUCCRT 3DC disease control rating, HV activity","Puccinia triticina; HV application at 100 ppm, 3 Day Curative, wheat brown rust",D
COc1ccnc(C(=O)N[C@@H](C)C(=O)O[C@@H](C)[C@H](Oc2ccc3ccccc3c2)C(C)C)c1OC(C)=O [Cmpd 632],"SEPTTR 1DP, LV activity at 125.1 g/H (% Control rating)",Zymoseptoria tritici; [1],D
same,"SEPTTR 3DC, LV activity at 125.1 g/H (% Control rating)",Zymoseptoria tritici; [2],D
same,"PUCCRT 1DP, LV activity at 125.1 g/H (% Control rating)",Puccinia triticina; [1],A (> 80)
same,"PUCCRT 3DC, LV activity at 125.1 g/H (% Control rating)",Puccinia triticina; [2],A (> 80)
COc1ccnc(C(=O)NC(C)C(=O)OC(C)C(Oc2ccccc2)c2ccccc2)c1O (stereo not drawn) [Cmpd 818],"SEPTTR 1DP disease control rating, HV activity at 100 ppm","Zymoseptoria tritici; 100 ppm, 1 day protectant",A (> 80)
same,"SEPTTR 3DC disease control rating, HV activity at 100 ppm","Zymoseptoria tritici; 100 ppm, 3 day curative",A (> 80)
same,"PUCCRT 1DP disease control rating, HV activity at 100 ppm","Puccinia triticina; 100 ppm, 1 day protectant",A (> 80)
same,"PUCCRT 3DC disease control rating, HV activity at 100 ppm","Puccinia triticina; 100 ppm, 3 day curative",D
COc1ccnc(C(=O)NC(C)C(=O)OC(C)C(Oc2ccc(Cl)cc2Cl)c2ccccc2)c1O (stereo not drawn) [Cmpd 817],"SEPTTR 1DP disease control rating, HV activity at 100 ppm","Zymoseptoria tritici; 100 ppm, 1 day protectant",A (> 80)
same,"SEPTTR 3DC disease control rating, HV activity at 100 ppm","Zymoseptoria tritici; 100 ppm, 3 day curative",B (≤ 80)
same,"PUCCRT 1DP disease control rating, HV activity at 100 ppm","Puccinia triticina; 100 ppm, 1 day protectant",A (> 80)
same,"PUCCRT 3DC disease control rating, HV activity at 100 ppm","Puccinia triticina; 100 ppm, 3 day curative",A (> 80)
COc1ccnc(C(=O)N[C@H](C(=O)O[C@@H](C)[C@H](Oc2cccc3ccccc23)C(C)C)C(C)C)c1OCOC(C)=O [Cmpd 624],"SEPTTR 1DP, LV activity at 125.1 g/H (% Control rating)",Zymoseptoria tritici; [1],B (≤ 80)
same,"SEPTTR 3DC, LV activity at 125.1 g/H (% Control rating)",Zymoseptoria tritici; [2],D
same,"PUCCRT 1DP, LV activity at 125.1 g/H (% Control rating)",Puccinia triticina; [1],A (> 80)
same,"PUCCRT 3DC, LV activity at 125.1 g/H (% Control rating)",Puccinia triticina; [2],A (> 80)
COc1ccnc(C(=O)N[C@@H](C)C(=O)O[C@@H](C)[C@@H](Oc2ccccc2)c2cccnc2)c1OC(C)=O [Cmpd 849],"SEPTTR 1DP disease control rating, LV activity at 125.1 g/H",Zymoseptoria tritici; [3],D
same,"SEPTTR 3DC disease control rating, LV activity at 125.1 g/H",Zymoseptoria tritici; [4],B (≤ 80)
same,"PUCCRT 1DP disease control rating, LV activity at 125.1 g/H",Puccinia triticina; [3],D
same,"PUCCRT 3DC disease control rating, LV activity at 125.1 g/H",Puccinia triticina; [4],B (≤ 80)
COc1ccnc(C(=O)N[C@@H](C)C(=O)O[C@@H](C)[C@@H](CC(C)C)Oc2cccc(Cl)c2)c1O [Cmpd 1050],HV activity at 100 ppm SEPTTR 1DP (disease control rating),"Zymoseptoria tritici; HV application, 100 ppm, 1 Day Protectant, wheat leaf blotch",A (> 80)
same,HV activity at 100 ppm SEPTTR 3DC (disease control rating),"Zymoseptoria tritici; HV application, 100 ppm, 3 Day Curative, wheat leaf blotch",A (> 80)
same,HV activity at 100 ppm PUCCRT 1DP (disease control rating),"Puccinia triticina; HV application, 100 ppm, 1 Day Protectant, wheat brown rust",A (> 80)
same,HV activity at 100 ppm PUCCRT 3DC (disease control rating),"Puccinia triticina; HV application, 100 ppm, 3 Day Curative, wheat brown rust",A (> 80)

# From patent US20180000085A1, “USE OF PICOLINAMIDE COMPOUNDS WITH FUNGICIDAL ACTIVITY” (DOW AGROSCIENCES LLC, priority 2014, published 2018)
